According to patent US11008340B2, “Modulators of ROR-gamma” (Vitae Pharmaceuticals, LLC, priority 2015, dated 2021):
Like-named read-outs stand apart in the source and are kept apart here.

Experiments:
[1] = target: T1, recombinant RORγ Ligand Binding Domain (LBD) protein (Homo sapiens, UniProt P51449); experiment: Radio-Ligand RORγ Binding Assay (Assay 1); details: radio-ligand competition, RORγ LBD, read-out: Avg ROR Bind Ki
T1 construct: 6×His; GST
T1 sequence (P51449 269-508 limits assumed): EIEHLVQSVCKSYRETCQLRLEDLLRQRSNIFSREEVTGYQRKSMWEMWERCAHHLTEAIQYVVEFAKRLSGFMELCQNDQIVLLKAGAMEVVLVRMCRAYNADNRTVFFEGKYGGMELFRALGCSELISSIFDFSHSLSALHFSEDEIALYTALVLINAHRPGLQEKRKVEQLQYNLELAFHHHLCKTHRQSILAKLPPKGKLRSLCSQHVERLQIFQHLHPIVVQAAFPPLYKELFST
How it was run: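 Cell-free SPA competition between compound and 25-hydroxy[26,27-^3H]-cholesterol for 6×His-GST-tagged RORγ LBD in 50 mM HEPES pH 7.4 with NaCl, MgCl2, glycerol, CHAPS, octylglucoside and DTT. Mix was shaken 20 min, held 10 min at rt, then read after poly-Lys YSi beads. IC50 came from a four-parameter fit, and Ki from radioligand KD.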

[2] = target: T2, full-length RORγt in Jurkat cells (Homo sapiens, UniProt P51449); experiment: RORγt 5×RORE Assay in Jurkat Cells (Assay 2); type: cell-based; details: 5×RORE luciferase reporter
T2 construct: transcriptional activity of the full-length RORγt in Jurkat cells; host or cells: Jurkat cells (ATCC TIB-152)
T2 sequence (P51449 1-497 isoform P51449-2): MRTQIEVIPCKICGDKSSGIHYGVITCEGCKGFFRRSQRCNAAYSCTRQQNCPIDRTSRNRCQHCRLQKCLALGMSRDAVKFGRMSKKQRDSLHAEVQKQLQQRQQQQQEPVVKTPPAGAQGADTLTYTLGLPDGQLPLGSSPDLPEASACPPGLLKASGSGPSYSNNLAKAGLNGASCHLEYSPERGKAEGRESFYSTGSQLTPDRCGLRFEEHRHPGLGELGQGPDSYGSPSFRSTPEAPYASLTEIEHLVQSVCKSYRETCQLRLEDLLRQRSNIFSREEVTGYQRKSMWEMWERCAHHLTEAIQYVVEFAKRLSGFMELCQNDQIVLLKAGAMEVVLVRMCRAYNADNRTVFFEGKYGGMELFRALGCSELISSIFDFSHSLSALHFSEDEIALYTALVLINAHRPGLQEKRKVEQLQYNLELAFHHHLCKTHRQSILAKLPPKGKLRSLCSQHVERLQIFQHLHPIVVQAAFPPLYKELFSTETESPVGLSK
Procedure: [formula] RORγt 5×RORE Assay in Jurkat Cells (Assay 2)
Compounds described herein were tested for RORγ inverse agonist activity in a cell-based, transcriptional activity assay. Secreted Nanoluc″ luciferase was used as a reporter for transcriptional activity of the full-length RORγt in Jurkat cells (ATCC, Cat. #TIB-152). A reporter plasmid was constructed by inserting 5 repeats of the ROR Response Element (RORE) […] (SEQ ID NO: 1) into a commercially available promoterless plasmid pNL1.3[secNluc] (Promega, Cat. #N1021) using KpnI and HindIII restriction sites. The expression plasmid for RORγt was purchased (Geneocopoeia, Cat. #EX-T6988-M02). Jurkat cells (30 million cells) were transfected with 11 μg of EX-T6988-MO2 and 26 μg of the reporter plasmid in OptiMEM® media using Lipofectamine LTX and Plus™ reagents (Life Technologies, Cat. #15338-100). After 5-6 hrs of incubation at 37° C./5% CO2, the cells were collected, resuspended in phenol-red free RPMI media containing 10% (v/v) delipidated FBS (Hyclone, Cat. #SH30855.03) and dispensed into 96-well clear bottom tissue culture plates (CoStar, Cat. #3603), at 80,000 cells per well. Tested compounds were added to the cells in the same media (final concentration of DMSO was 0.1% (v/v)), and the plates were incubated at 37° C./5% CO2 for 16-18 hrs. Luciferase activity in the conditioned supernatants was determined with NanoGlo® assay reagents (Promega, Cat. #N1130).

[3] = 25-hydroxy [26,27-3H]-cholesterol
[4] = Table 20, read-out: Avg ROR γt/5x IC5
[5] = head without unit (Tables 15, 17)
[6] = head without unit (Tables 15, 17), read-out: Avg ROR γt/5x IC50

| Compound | Ki [1, 3] [nM] | IC50 [2, 4] [nM] | IC50 ([2]; read-out: Avg ROR γt/5x IC50) [nM] | Ki [1, 5] [nM] | IC50 [2, 6] [nM] |
| --- | --- | --- | --- | --- | --- |
| CC[C@H]1CN(c2ncc(C(F)(F)F)cn2)Cc2cc(C(=O)NCc3ccc(S(=O)(=O)CC)cn3)ccc21 (single isomer, unassigned) [Hy7-10.1] | < 100 | < 100 | – | – | – |
| CCC1c2ccc(C(=O)NCc3ccc(S(=O)(=O)CC)cc3)cc2CCN1CC1CCC(C(F)(F)F)CC1 (single isomer, unassigned) [Hy2A-27] | < 100 | – | < 100 | – | – |
| CCS(=O)(=O)c1ccc(CNC(=O)c2ccc3c(c2)CN(c2ncc(C4CC4)cn2)C[C@@H]3C(C)C)cc1 (single isomer, unassigned) [Hy7-4.2] | < 100 | > 1000 | – | – | – |
| CCS(=O)(=O)c1ccc([C@H](CO)NC(=O)c2cc3ccnc(OCc4ccc(C(F)(F)F)cc4)c3n2C)cc1 [Hy4-4, (R)-N-(1-(4-(ethylsulfonyl)phenyl)-2-hydroxyethyl)-1-methyl-7-((4-(trifluoromethyl)benzyl)oxy)-1H-pyrrolo[2,3-c]pyridine-2-carboxamide] | – | – | – | < 100 | 100 to 1000 |
| CCS(=O)(=O)c1ccc(CNC(=O)c2ccc3c(c2)CCN(Cc2ccc(F)cc2)C3C(C)C)cc1 (racemic) [Hy2A-13, N-(4-(ethylsulfonyl)benzyl)-2-(4-fluorobenzyl)-1-isopropyl-1,2,3,4-tetrahydroisoquinoline-6-carboxamide] | < 100 | – | < 100 | – | – |
| CCS(=O)(=O)c1ccc(CNC(=O)c2cnc3c(c2)CCN(Cc2ccc(F)cc2)C3C(C)C)cc1 (single isomer, unassigned) [Hy2B-6.1] | – | – | – | < 100 | > 1000 |
| Mixture of N-((R)-1-(4-(ethylsulfonyl)phenyl)-2-hydroxyethyl)-3-methyl-1-(((3S,6S)-6-(trifluoromethyl)tetrahydro-2H-pyran-3-yl)methoxy)isoquinoline-6-carboxamide and N-((R)-1-(4-(ethylsulfonyl)phenyl)-2-hydroxyethyl)-3-methyl-1-(((3R,6R)-6-(trifluoromethyl)tetrahydro-2H-pyran-3-yl)methoxy)isoquinoline-6-carboxamide [Hy1A-18.3] | < 100 | – | > 1000 | – | – |
| CCS(=O)(=O)c1ccc([C@H](CO)NC(=O)c2ccc3c(OC[C@@H]4CC[C@@H](C(F)(F)F)OC4)nc(C)cc3c2)cc1 (single isomer, unassigned) [Hy1A-18.2] | < 100 | – | < 100 | – | – |
| CCC1c2ccc(C(=O)NC(CO)c3ccc(S(=O)(=O)CC)cc3)cc2CCN1CC1CCC(C(F)(F)F)CC1 (single isomer, unassigned) [Hy2A-28.1] | < 100 | – | < 100 | – | – |
| CCS(=O)(=O)c1ccc(CNC(=O)c2ccc3c(c2)CCN(Cc2ccc(C#N)nc2)[C@H]3C(C)C)cc1 (single isomer, unassigned) [Hy2A-17.1] | < 100 | – | < 100 | – | – |
| CCS(=O)(=O)c1ccc([C@H](CO)NC(=O)c2ccc3c(OC[C@H]4CC[C@H](C(F)(F)F)CC4)nc(C4CC4)cc3c2)cc1 [Hy1A-21, 3-cyclopropyl-N-((R)-1-(4-(ethylsulfonyl)phenyl)-2-hydroxyethyl)-1-(((1r,4R)-4-(trifluoromethyl)cyclohexyl)methoxy)isoquinoline-6-carboxamide] | < 100 | – | < 100 | – | – |
| CCS(=O)(=O)c1ccc(CNC(=O)c2ccc3c(c2)CCN(c2ncc(C(F)(F)F)cn2)C3C(C)C)cc1 (stereo not shown) [Hy2A-2, N-(4-(ethylsulfonyl)benzyl)-1-isopropyl-2-(5-(trifluoromethyl)pyrimidin-2-yl)-1,2,3,4-tetrahydroisoquinoline-6-carboxamide] | 100 to 1000 | – | > 1000 | – | – |
| CCS(=O)(=O)c1ccc(CNC(=O)c2ccc3c(c2)CN(c2nccc(C(F)(F)F)n2)C[C@@H]3C(C)C)cc1 (single isomer, unassigned) [Hy7-14.2] | < 100 | > 1000 | – | – | – |
| CCS(=O)(=O)c1ccc(CNC(=O)c2ccc3c(C4CC4)n(C[C@H]4CC[C@H](C(F)(F)F)CC4)nc3c2)cc1 [Hy3A-2, 3-cyclopropyl-N-(4-(ethylsulfonyl)benzyl)-2-(((1r,4r)-4-(trifluoromethyl)cyclohexyl)methyl)-2H-indazole-6-carboxamide] | < 100 | – | < 100 | – | – |
| CCS(=O)(=O)c1ccc([C@H](CO)NC(=O)c2ccc3c(Oc4ccc(OC(F)(F)F)cc4)nc(C)cc3c2)cc1 [Hy1A-15, (R)-N-(1-(4-(ethylsulfonyl)phenyl)-2-hydroxyethyl)-3-methyl-1-(4-(trifluoromethoxy)phenoxy)isoquinoline-6-carboxamide] | < 100 | – | 100 to 1000 | – | – |
| CCS(=O)(=O)c1ccc(CNC(=O)c2ccc3c(C4CC4)n(C[C@H]4CC[C@H](C(F)(F)F)CC4)nc3c2)nc1 [Hy3A-3, 3-cyclopropyl-N-((5-(ethylsulfonyl)pyridin-2-yl)methyl)-2-(((1r,4r)-4-(trifluoromethyl)cyclohexyl)methyl)-2H-indazole-6-carboxamide] | < 100 | – | < 100 | – | – |
| CCS(=O)(=O)c1ccc([C@H](CO)NC(=O)c2ccc3c(C4CC4)n(Cc4ccc(C(F)(F)F)cc4)nc3c2)cc1 [Hy3A-4, (R)-3-cyclopropyl-N-(1-(4-(ethylsulfonyl)phenyl)-2-hydroxyethyl)-2-(4-(trifluoromethyl)benzyl)-2H-indazole-6-carboxamide] | < 100 | – | < 100 | – | – |
| CCC1CN(c2ncc(C(F)(F)F)cn2)Cc2cc(C(=O)N[C@@H](CO)c3ccc(S(=O)(=O)CC)cc3)ccc21 (single isomer, unassigned) [Hy7-17.1] | < 100 | < 100 | – | – | – |

Second part, the compound after the results:

| Ki [1, 3] [nM] | IC50 [2, 4] [nM] | IC50 ([2]; read-out: Avg ROR γt/5x IC50) [nM] | Ki [1, 5] [nM] | IC50 [2, 6] [nM] | Compound |
| --- | --- | --- | --- | --- | --- |
| < 100 | 100 to 1000 | – | – | – | CCS(=O)(=O)c1ccc(CNC(=O)c2ccc3c(c2)CN(c2ncc(-c4ccc(=O)[nH]c4)cn2)C[C@H]3C(C)C)cc1 (single isomer, unassigned) [Hy7-21.1] |
| < 100 | > 1000 | – | – | – | CC[C@H]1CN(c2ncc(-c3ncco3)cn2)Cc2cc(C(=O)NCc3ccc(S(=O)(=O)CC)cc3)ccc21 (single isomer, unassigned) [Hy7-31.2] |
| < 100 | < 100 | – | – | – | CC[C@@H]1CN(c2ncc(C(F)(F)F)cc2C)Cc2cc(C(=O)N[C@@H](CO)c3ccc(S(=O)(=O)CC)cc3)ccc21 (single isomer, unassigned) [Hy7-22.1] |
| < 100 | < 100 | – | – | – | CCC1CN(C2CCC(C(F)(F)F)CC2)Cc2cc(C(=O)NC(CO)c3ccc(S(=O)(=O)CC)cc3)ccc21 (single isomer, unassigned) [Hy7-35.1] |
| < 100 | < 100 | – | – | – | CCS(=O)(=O)c1ccc(CNC(=O)c2ccc3c(c2)CN(c2ncc(C(F)(F)F)cn2)C[C@H]3C(F)(F)F)cc1 (single isomer, unassigned) [Hy7-36.1] |
| < 100 | < 100 | – | – | – | CCOC(=O)c1cnc(N2Cc3cc(C(=O)N[C@@H](CO)c4ccc(S(=O)(=O)CC)cc4)ccc3[C@H](CC)C2)nc1 (single isomer, unassigned) [Hy7-34.1] |
| < 100 | < 100 | – | – | – | CC[C@@H]1CN(c2ncc(C(F)(F)F)cc2C#N)Cc2cc(C(=O)N[C@@H](CO)c3ccc(S(=O)(=O)CC)cc3)ccc21 (single isomer, unassigned) [Hy7-37.1] |
| < 100 | < 100 | – | – | – | CC[C@@H]1CN(c2ncc(-c3cccc(OC)n3)cn2)Cc2cc(C(=O)NCc3ccc(S(=O)(=O)CC)cc3)ccc21 (single isomer, unassigned) [Hy7-20.1] |
